Reference: patent publication US6727244B2, “Mammalian metabolites of a tachykinin receptor antagonist” (Merck & Co., Inc., priority 2000, dated 2004)

Experiments:
human NK1 receptor = target: T1, human NK1 receptor (Homo sapiens, UniProt P25103); test: human NK1 receptor binding assay (125I-substance P, COS or CHO cells)
T1 construct: expressed in transfected cells
Description: To express the cloned human neurokinin-1 receptor (NKIR) transiently in COS, the cDNA for the human NKIR was cloned into the expression vector pCDM9 which was derived from pCDM8 (INVITROGEN) by inserting the ampicillin resistance gene (nucleotide 1973 to 2964 from BLUESCRIPT SK+) into the Sac II site. Transfection of 20 ug of the plasmid DNA into 10 million COS cells was achieved by electroporation in 800 ul of transfection buffer (135 mM NaCl, 1.2 mM CaCl2, 1.2 mM MgCl2, 2.4 mM K2HPO4, 0.6 mM KH2PO4, 10 mM glucose, 10 mM HEPES pH 7.4) at 260 V and 950 uF using the IBI GENEZAPPER (IBI, New Haven, Conn.). The cells were incubated in 10% fetal calf serum, 2 mM glutamine, 100U/ml penicillin-streptomycin, and 90% DMEM media (GIBCO, Grand Island, N.Y.) in 5% CO2 at 37° C. for three days before the binding assay.
To establish a stable cell line expressing the cloned human NK1R, the cDNA was subcloned into the vector pRcCMV (INVITROGEN). Transfection of 20 ug of the plasmid DNA into CHO cells was achieved by electroporation in 800 ul of transfection buffer suplemented with 0.625 mg/ml Herring sperm DNA at 300 V and 950 uF using the IBI GENEZAPPER (IBI). The transfected cells were incubated in CHO media [10 % fetal calf serum, 100 U/ml pennicilin-streptomycin, 2 mM glutamine, 1/500 hypoxanthine-thymidine (ATCC), 90% IMDM media (JRH BIOSClENCES, Lenexa, Kans.), 0.7 mg/ml G418 (GIBCO)] in 5% CO2 at 37° C. until colonies were visible. Each colony was separated and propagated. The cell clone with the highest number of human NK1R was selected for subsequent applications such as drug screening.
The binding assay of human NK1R expressed in either COS or CHO cells is based on the use of ^125I-substance P (^125I-SP, from DU PONT, Boston, Mass.) as a radioactively labeled ligand which competes with unlabeled substance P or any other ligand for binding to the human NK1R. Monolayer cell cultures of COS or CHO were dissociated by the non-enzymatic solution (SPECIALTY MEDIA, Lavallette, N.J.) and resuspended in appropriate volume of the binding buffer (50 mM Tris pH 7.5, 5 mM MnCl2, 150 mM NaCl, 0.04 mg/ml bacitracin, 0.004 mg/ml leupeptin, 0.2 mg/ml BSA, 0.01 mM phosphoramidon) such that 200 ul of the cell suspension would give rise to about 10,000 cpm of specific ^125I-SP binding (approximately 50,000 to 200,000 cells). […] The bound radioactivity was separated from unbound radioactivity by GF/C filter (BRANDEL, Gaithersburg, Md.) which was pre-wetted with 0.1 % polyethylenimine. The filter was washed with 3 ml of wash buffer (50 mM Tris pH 7.5, 5 mM MnCl2, 150 mM NaCl) three times and its radioactivity was determined by gamma counter.

[1] = target: T2, recombinant human CYP isozymes (Homo sapiens, UniProt P08684); test: metabolism by microsomes containing recombinant human CYP isozymes; assay type: in vitro ADME; conditions: parent to M-1 (N-dealkylation); M-1 to M-2 (oxidation); M-3 to M-4 (hydroxylation); M-2 to M-5 (conversion)
T2 construct: host or cells: Baculovirus-infected sf21 insect cells (microsomes)
T2 sequence (P08684 2-503 limits assumed): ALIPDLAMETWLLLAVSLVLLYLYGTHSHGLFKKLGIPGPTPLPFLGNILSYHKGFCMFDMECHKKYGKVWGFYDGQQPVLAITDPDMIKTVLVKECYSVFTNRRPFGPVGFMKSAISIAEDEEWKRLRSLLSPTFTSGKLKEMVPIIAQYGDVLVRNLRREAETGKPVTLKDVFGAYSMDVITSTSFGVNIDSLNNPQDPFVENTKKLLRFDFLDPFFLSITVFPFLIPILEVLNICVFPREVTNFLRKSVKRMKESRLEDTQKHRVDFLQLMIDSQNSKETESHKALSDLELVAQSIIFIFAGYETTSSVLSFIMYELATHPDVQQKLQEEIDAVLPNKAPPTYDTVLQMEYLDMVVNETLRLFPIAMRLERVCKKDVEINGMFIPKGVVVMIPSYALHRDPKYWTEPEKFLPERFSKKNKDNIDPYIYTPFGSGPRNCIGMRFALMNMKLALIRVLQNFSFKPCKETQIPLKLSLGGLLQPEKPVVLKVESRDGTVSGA
Description: Hepatocytes were harvested from male Sprague-Dawley rat livers or human livers and cultured on a matrigel support and treated with 0.1 μM dexamethasone or 50 μM rifampicin, respectively, for 48 hr prior to the addition of the test compounds. A 2.5 mM stock solution of [^14C]2-(R)-(1-(R)-(3,5-bis(trifluoromethyl)-phenyl)ethoxy)-3-(S)-(4-fluoro)phenyl-4-(3-(5-oxo-1H,4H-1,2,4-triazolo)methylmorpholine, [^14C]M-1 or [^14C]M-2 in DMSO was added to the plates such that the final concentration of test compound was 25 μM and DMSO was 1% (v/v). The cultures were incubated for 4, 6 or 24 hr for rat hepatocytes and 48 hr for human hepatocytes. The incubation mixtures (500 μL) contained 10 μM of test compound, 100 mM phosphate buffer pH 7.4, NADPH-regenerating system, microsomes containing expressed CYP isoforms (CYP1A2, CYP2A6, CYP2B6, CYP2C8, CYP2C9, CYP2C19, CYP2D6, CYP2E1 or CYP3A4) and cytochrome P-450 reductase. The reactions were initiated by adding NADP and proceeded at 37° C. for 15-45 min. Acetonitrile extracts from microsomal and hepatocyte incubates were dissolved in 50% aqueous methanol and fractionated by HPLC. The separation was accomplished on a Zorbax RX C8 analytical column (5 μm, 4.6×250 mm). The mobile phase consisted of solvent A (10 mM ammonium acetate in water) and solvent B (7.3 mM ammonium acetate in 92.7% acetonitrile and 7.3% methanol. The column was eluted by a linear gradient from 35 to 80% B over 40 min at a flow rate of 1 mL/min. Fractions of major metabolites were subjected to LC-MS/MS analysis. Further purification was done using isocratic conditions prior to NMR analysis.
The incubation mixtures (500 μL) contained 10 or 25 μM of test compounds, 100 mM phosphate buffer pH 7.4, NADPH-regenerating system (5 mM glucose-6-phosphate, 1 mM NADP and 0.7 I.U/mL glucose 6-phosphate dehydrogenase), 0.5 to 2 mg/mL liver microsomal protein prepared from rats and humans or microsomes from Baculovirus-infected sf21 cells containing 20 to 200 pmol expressed CYP isoforms (CYP1A2, CYP2A6, CYP2B6, CYP2C8, CYP2C9, CYP2C19, CYP2D6, CYP2E1 or CYP3A4) and cytochrome P450 reductase. Stock solutions of the substrates in methanol were made such that final concentration of methanol in the reaction mixture was 3%. The reactions were initiated by adding 50 μL of 10 mM NADP and proceeded at 37° C. for 15-45 min. After incubation, the reactions were terminated by the addition of four volumes of acetonitrile. The suspensions were mixed vigorously and centrifuged at 3000×g for 5 min. The supernatants were dried and redissolved in 50% methanol for HPLC analysis using method A described below.

[2] = oxidative metabolism in liver microsomes from humans; assay type: in vitro ADME; conditions: human liver microsomes, 45 min
Description: (§1) All liver microsomal and cytosolic fractions were prepared using the following procedure. Thawed livers were homogenized with 2 volumes of 50 mM Tris-buffer (pH 7.5) containing 1.15% KCl. For microsomal and cytosolic preparations, the homogenate was centrifuged for 20 min at 9,000×g and the resulting supernatant was centrifuged for 60 min at 105,000×g. The resulting cytosolic fractions were re-centrifuged at 105,000×g for 60 min. Fractions of cytosol were aliquoted into small tubes and stored at −70° C. Subsequently, the microsomal pellets were washed with 10 mM EDTA containing 1.15% KCl and were centrifuged at 105,000×g for 60 min. Washed microsomes were resuspended in 10 mM potassium phosphate buffer (pH 7.4) containing 250 mM sucrose, aliquoted into small tubes, and stored at −70° C. Protein concentrations were determined by a modified Lowry assay (Smith et al., 1985). The specific cytochrome P450 content in each microsomal preparation was measured as described by Omura and Sato, J. Biol. Chem. 239, 2370-2378 (1964). […]
(§2) Method A was conducted on a Shimadzu HPLC system (Shimadzu Scientific Instruments Inc., Columbia Md.). The parent compounds and their metabolites were monitored directly using a radiometric detector (INUS Systems Inc. Tampa, Fla.) and Ultima-Flow M (Packard Instrument Co., Meridan Conn.) as scintillant at a flow rate of 3 mL/min. […]

[3] = oxidative metabolism in liver microsomes from rats; assay type: in vitro ADME; conditions: rat liver microsomes, 45 min
Description: as §1, §2

T1 sequence (P25103 whole entry): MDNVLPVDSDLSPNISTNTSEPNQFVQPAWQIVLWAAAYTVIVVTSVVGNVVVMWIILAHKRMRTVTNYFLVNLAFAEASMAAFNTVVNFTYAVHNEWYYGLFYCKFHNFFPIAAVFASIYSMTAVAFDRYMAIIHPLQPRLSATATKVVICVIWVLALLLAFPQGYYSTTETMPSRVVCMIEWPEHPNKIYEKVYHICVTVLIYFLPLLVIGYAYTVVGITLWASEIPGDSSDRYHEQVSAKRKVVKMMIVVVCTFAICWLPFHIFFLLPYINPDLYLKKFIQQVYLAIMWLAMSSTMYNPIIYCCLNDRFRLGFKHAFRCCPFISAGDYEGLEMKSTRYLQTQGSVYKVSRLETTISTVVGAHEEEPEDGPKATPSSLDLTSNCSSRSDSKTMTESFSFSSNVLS

| IC50 (human NK1 receptor) [nM] | CYP isozyme primarily responsible for the metabolic step [1] | conversion in microsomes in the presence of an NADPH regenerating system [2] [%] | conversion in microsomes in the presence of an NADPH regenerating system [3] [%] | SMILES |
| --- | --- | --- | --- | --- |
| ~10 | CYP3A4 |  |  | C[C@@H](O[C@H]1OCCN=C1c1ccc(F)cc1)c1cc(C(F)(F)F)cc(C(F)(F)F)c1 [Metabolite M-2, (2R)-2-[(1R)-1-[3,5-bis(trifluoromethyl)phenyl]ethoxy]-3-(4-fluorophenyl)-5,6-dihydro-2H-1,4-oxazine] |
| 4 | CYP3A4 |  |  | C[C@@H](O[C@H]1OCC(=O)N[C@H]1c1ccc(F)cc1)c1cc(C(F)(F)F)cc(C(F)(F)F)c1 [Metabolite M-3, (5S,6R)-6-[(1R)-1-[3,5-bis(trifluoromethyl)phenyl]ethoxy]-5-(4-fluorophenyl)-3-morpholinone] |
| 18 |  |  |  | C[C@@H](O[C@@H](OCC(=O)O)C(O)c1ccc(F)cc1)c1cc(C(F)(F)F)cc(C(F)(F)F)c1 (stereo partly drawn) [Metabolite M-6, [(1R)-1-[(1R)-1-[3,5-bis(trifluoromethyl)phenyl]ethoxy]-2-(4-fluorophenyl)-2-hydroxyethoxy]acetic acid] |
|  | CYP3A4 | < 2 | < 2 | C[C@@H](O[C@H]1OCCN(Cc2n[nH]c(=O)[nH]2)[C@H]1c1ccc(F)cc1)c1cc(C(F)(F)F)cc(C(F)(F)F)c1 [Parent Compound, 5-[[(2R,3S)-2-[(1R)-1-[3,5-bis(trifluoromethyl)phenyl]ethoxy]-3-(4-fluorophenyl)4-morpholinyl]methyl]-1,2-dihydro-3H-1,2,4-triazol-3-one, reference compound] |
